Like-named read-outs stand apart in the source and are kept apart here.
Legend:
Conditions in all cases: 20 mM Tris pH 8, 100 mM NaCl
AfuA [1] = target: T1, AfuA (Actinobacillus pleuropneumoniae, UniProt A3N294); assay: isothermal titration calorimetry; format: binding
T1 construct: pET26b, periplasmic expression in E. coli (osmotic shock), N-terminal 6xHis tag cleaved by thrombin
From the text: isothermal titration calorimetry on AfuA

AfuA [2] = target: AfuA (Actinobacillus pleuropneumoniae, UniProt A3N294, T177A)
Chain of AfuA (Actinobacillus pleuropneumoniae, UniProt A3N294, T177A) (A3N294 28-346 T177A): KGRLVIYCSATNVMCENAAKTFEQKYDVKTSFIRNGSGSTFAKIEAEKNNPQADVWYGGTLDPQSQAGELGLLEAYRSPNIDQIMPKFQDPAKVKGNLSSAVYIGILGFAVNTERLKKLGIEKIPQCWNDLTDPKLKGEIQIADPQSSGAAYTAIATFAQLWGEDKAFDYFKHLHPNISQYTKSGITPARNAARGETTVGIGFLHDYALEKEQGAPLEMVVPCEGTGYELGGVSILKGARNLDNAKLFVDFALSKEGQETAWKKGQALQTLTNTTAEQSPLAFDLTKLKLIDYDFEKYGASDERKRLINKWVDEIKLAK

AfuA [3] = target: AfuA (Actinobacillus pleuropneumoniae, UniProt A3N294, S64A)
Chain of AfuA (Actinobacillus pleuropneumoniae, UniProt A3N294, S64A) (A3N294 28-346 S64A): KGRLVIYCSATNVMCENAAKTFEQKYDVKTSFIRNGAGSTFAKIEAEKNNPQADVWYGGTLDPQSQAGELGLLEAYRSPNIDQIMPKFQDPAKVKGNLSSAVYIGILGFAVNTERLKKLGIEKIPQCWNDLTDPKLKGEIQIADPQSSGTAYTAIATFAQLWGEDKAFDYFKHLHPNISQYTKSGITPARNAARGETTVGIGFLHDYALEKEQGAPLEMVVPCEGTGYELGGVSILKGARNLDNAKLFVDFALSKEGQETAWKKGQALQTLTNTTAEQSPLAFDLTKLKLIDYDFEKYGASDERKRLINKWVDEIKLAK

AfuA [4] = target: AfuA (Actinobacillus pleuropneumoniae, UniProt A3N294, S64D)
Chain of AfuA (Actinobacillus pleuropneumoniae, UniProt A3N294, S64D) (A3N294 28-346 S64D): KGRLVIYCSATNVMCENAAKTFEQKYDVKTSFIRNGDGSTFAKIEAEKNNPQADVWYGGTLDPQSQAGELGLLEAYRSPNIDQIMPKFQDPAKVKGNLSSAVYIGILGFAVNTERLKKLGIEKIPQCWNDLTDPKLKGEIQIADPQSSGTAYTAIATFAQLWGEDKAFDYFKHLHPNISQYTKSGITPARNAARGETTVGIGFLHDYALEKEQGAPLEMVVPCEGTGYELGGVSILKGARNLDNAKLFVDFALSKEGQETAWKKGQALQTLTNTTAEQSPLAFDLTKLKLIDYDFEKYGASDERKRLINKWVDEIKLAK

C. rodentium AfuA = target: T2, C. rodentium AfuA (Citrobacter rodentium, UniProt D2TKU7); assay: isothermal titration calorimetry; format: binding
T2 construct: recombinant AfuA; construct details only in supplement
T2 sequence (D2TKU7 entry or part of it): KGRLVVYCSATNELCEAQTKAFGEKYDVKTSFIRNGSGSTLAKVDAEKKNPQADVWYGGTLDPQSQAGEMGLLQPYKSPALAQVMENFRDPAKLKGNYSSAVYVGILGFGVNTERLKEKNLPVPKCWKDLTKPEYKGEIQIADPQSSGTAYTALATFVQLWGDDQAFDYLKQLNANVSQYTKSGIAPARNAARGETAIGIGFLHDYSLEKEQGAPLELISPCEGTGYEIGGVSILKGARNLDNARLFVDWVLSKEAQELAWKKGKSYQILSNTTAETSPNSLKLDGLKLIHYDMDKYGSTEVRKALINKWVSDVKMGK
From the text: isothermal titration calorimetry on C. rodentium AfuA | These amounts exceed the Kd of C. rodentium AfuA for G6P or F6P

T1 sequence (A3N294 entry or part of it): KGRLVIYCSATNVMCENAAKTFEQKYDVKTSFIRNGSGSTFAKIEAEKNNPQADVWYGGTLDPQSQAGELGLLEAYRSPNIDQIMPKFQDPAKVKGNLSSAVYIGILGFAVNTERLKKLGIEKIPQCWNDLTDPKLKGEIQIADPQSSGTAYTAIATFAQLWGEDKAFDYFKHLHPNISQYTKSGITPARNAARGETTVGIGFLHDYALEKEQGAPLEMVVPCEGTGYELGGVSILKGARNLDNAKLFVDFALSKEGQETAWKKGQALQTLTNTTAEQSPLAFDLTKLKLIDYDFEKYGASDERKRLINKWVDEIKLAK

`O=P(O)(O)OC[C@H]1OC(O)(CO)[C@@H](O)[C@@H]1O` (some centres unmarked) [Fructose-6-phosphate] was tested, and the Kd (AfuA [1]; read-out: Kd) was 0.008 ± 0.001 µM.
With `O=P(O)(O)OC[C@H]1OC(O)[C@H](O)[C@@H](O)[C@@H]1O` (some centres unmarked) [Glucose-6-phosphate] the Kd (AfuA [2]) was 3.3 ± 0.2 µM, the Kd (AfuA [3]) was 0.9 ± 0.1 µM and the Kd (AfuA [4]) was 5.5 ± 0.9 µM. It also gave a Kd (AfuA [1]; read-out: Kd) of 0.023 ± 0.004 µM and a Kd (C. rodentium AfuA) of 0.164 ± 0.094 µM.
`O=P(O)(O)OC[C@H]1OC(O)[C@@H](O)[C@@H](O)[C@@H]1O` (some centres unmarked) [Mannose-6-phosphate] was tested, and the Kd (AfuA [1]; read-out: Kd) was 0.96 ± 0.15 µM.
Compound `O=P(O)(O)OC[C@@H](O)[C@H]1OC(O)(CO)[C@@H](O)[C@@H]1O` (some centres unmarked) [Sedoheptulose-7-phosphate] has a Kd (AfuA [1]) of 0.057 ± 0.022 µM.

Reference: PMC4546632, “Active Transport of Phosphorylated Carbohydrates Promotes Intestinal Colonization and Transmission of a Bacterial Pathogen” (PLoS Pathogens, 2015)
